# Data reported in patent US20150290192A1, “INHIBITORS OF BRUTON'S TYROSINE KINASE” (HOFFMANN-LA ROCHE INC., priority 2012, published 2015).
# Where two headings read alike, the source gives them in different places. Marks after values point to notes of the source that are not given here.
# Assays:
# Bruton's Tyrosine Kinase = Bruton's Tyrosine Kinase (Homo sapiens, UniProt Q06187); assay: Bruton's Tyrosine Kinase (BTK) inhibition TR-FRET competition assay; type: binding
# Method: This BTK competition assay measures compound potency (IC50) for the inactivated state of Bruton's Tyrosine Kinase using FRET (Firster/Fluorescence Resonance Energy Transfer) technology. The BTK-Eu complex was incubated on ice one hour prior to use at a starting concentration of 50 nM BTK-Bioease™: 10 nM Eu-streptavidin (Perkin-Elmer Catalog#AD0062). The assay buffer consisted of 20 mM HEPES (pH 7.15), 0.1 mM DTT, 10 mM MgCl2, 0.5 mg/ml BSA with 3% Kinase Stabilizer (Fremont Biosolutions, Catalog #STB-K02). After 1 h, the reaction mixture from above was diluted 10 fold in assay buffer to make 5 nM BTK: InM Eu-Streptavidin complex (donor fluorophore). 18 l of a mixture of 0.11 nM BTK-Eu and 0.11 nM Kinase Tracer 178 (Invitrogen, Catalog #PV5593,) with BTK-Eu alone as no negative control, was then dispensed into 384-well flat bottom plates (Greiner, 784076). Compounds to be tested in assay were prepared as 10× concentrations and serial dilution in half-log increments was performed in DMSO so as to generate 10 point curves. To initiate the FRET reaction, compounds prepared as 10× stock in DMSO was added to the plates and the plates were incubated 18-24 h at 14° C.
# After the incubation the plates were read on a BMG Pherastar Fluorescent plate reader (or equivalent) and used to measure the emission energy from the europium donor fluorophore (620 nm emission) and the FRET (665 nm emission). The negative control well values were averaged to obtain the mean minimum. The positive “no inhibitor” control wells were averaged to obtain the mean maximum. Percent of maximal FRET was calculated using following equation:
# % max FRET=100×[(FSRcmpd−FSRmean min)/(FSRmean max−FSRmean min)]
# where FSR=FRET Signal ratio. % Max FRET curves were plotted in Activity Base (Excel) and the IC50(%), hill slope, z′ and % CV were determined. The mean IC50 and standard deviation will be derived from duplicate curves (singlet inhibition curves from two independent dilutions) using Microsoft Excel.
# [1] = tested on: human mast cells (FCεRI activation); assay: Human mast cell activation, mediator release after FCεRI activation; type: cell-based; conditions: N = 3 donors
# Method: One million human cord blood derived CD34+ hematopoietic stem cells (HSCs) from different donors (AllCells #CB008F-S, Emeryville, Calif.) were cultured for eight weeks in a serum-free complete medium (StemPro-34 with supplements; Invitrogen, Carlsbad, Calif.), with recombinant h-SCF (100 ng/ml) and h-IL6 (50 ng/ml). During the first week of culturing, recombinant h-IL3 (10 ng/ml) was also included to support HSCs differentiation. After 8 weeks of culture, cells were stimulated with recombinant h-IL-4 (10 ng/ml) for 5 days. Confirmation of the mast cell differentiation process was routinely done by FACS to check for c-kit and FcsRI expression; differentiated cells were routinely more than 90% c-kit positive, FceRI positive. Differentiated mast cells were sensitized with […] anti-NP IgE (Serotec, Raleigh, N.C.) overnight at 37° C. Cells were washed and then treated with Compound 1 for 1 hour at 37° C. After treatment, cells were cross-linked with […] NP(30)-BSA (Biosearch Technologies, Novato Calif.) for 30 minutes (for histamine and lipid mediator assessment) or overnight (for cytokine assessment). Culture supernatants were collected and assayed for histamine (Oxford Biomedical Research, Rochester Hills, Mich.), PGD2 and LTC4 (Cayman Chemical Company, Ann Arbor Mich.), and IL-5 and IL-13 (Bio-Rad Bio-Plex Pro cytokine quantification kit) release as per kits' instructions. Compound 1, Compound 2 and Compound 3 reduced the release of these mediators into the supernatant in a concentration dependent manner up to 100% efficacy and the IC50 values are reported in Table 2.
# [2] = tested on: human B cells (BCR activation); assay: Human B cell antibody production after BCR activation; type: cell-based; conditions: for IC50: Homo sapiens, B-cell, N = 3 donors
# Method: Human total B cells were enriched with RosetteSep human B cell enrichment cocktail (#28921, Vancouver, BC) from buffy coat leukocyte packs (New York Blood Center) following manufacturer's protocol. Enriched B cell purity (around 80%) was checked by FACS with CD19+ staining. B cells were suspended (0.1 million cells/well/100 μl) in RPMI-1640 based conditional medium (50 ng/ml IL-2, 50 ng/ml IL-10, and […] anti-IgD for the activation of B cells to produce IgG/IgM; 10 ng/ml IL-4, 10 ng/ml IL-10, 25 ng/ml IL-21, and […] anti-CD40 for the activation of B cells to produce IgE) together with Compound 1 (1 nM-10 μM). Cells were cultured for 10 days (for IgG/IgM production) or 14 days (for IgE production) at 37° C. Culture supernatants were collected for IgM, IgG, and IgE analysis following Bethyl Laboratory's protocol (#E80-104, #E80-100, #E80-108, Montgomery, Tex.).
# Pharmacokinetics in rat = type: in vivo
# [3] = Pharmacokinetics in mouse; type: in vivo
# Btk kinase = Btk kinase (Homo sapiens, UniProt Q06187); assay: Btk Biacore binding assay
# Method: Analyses were performed on a Biacore T-100. Btk kinase was avi-tagged and co-expressed in baculovirus with biotin ligase to generate single site biotinylated Btk (Avidity, LLC). Biotinylated target was captured on Biacore streptavidin sensor chips (Series S Sensor Chip SA) at densities of ˜10000 resonance units (1 ru˜1 pg protein/mm2). […] Compounds were injected for 100 seconds association time and dissociation was followed for 20 min.
# [4] = tested on: OVA sensitized and challenged mice, allergen-induced bronchoconstriction; assay: Ovalbumin-induced allergic airway disease: allergen-induced bronchoconstriction
# Chain of Btk kinase (Q06187 whole entry): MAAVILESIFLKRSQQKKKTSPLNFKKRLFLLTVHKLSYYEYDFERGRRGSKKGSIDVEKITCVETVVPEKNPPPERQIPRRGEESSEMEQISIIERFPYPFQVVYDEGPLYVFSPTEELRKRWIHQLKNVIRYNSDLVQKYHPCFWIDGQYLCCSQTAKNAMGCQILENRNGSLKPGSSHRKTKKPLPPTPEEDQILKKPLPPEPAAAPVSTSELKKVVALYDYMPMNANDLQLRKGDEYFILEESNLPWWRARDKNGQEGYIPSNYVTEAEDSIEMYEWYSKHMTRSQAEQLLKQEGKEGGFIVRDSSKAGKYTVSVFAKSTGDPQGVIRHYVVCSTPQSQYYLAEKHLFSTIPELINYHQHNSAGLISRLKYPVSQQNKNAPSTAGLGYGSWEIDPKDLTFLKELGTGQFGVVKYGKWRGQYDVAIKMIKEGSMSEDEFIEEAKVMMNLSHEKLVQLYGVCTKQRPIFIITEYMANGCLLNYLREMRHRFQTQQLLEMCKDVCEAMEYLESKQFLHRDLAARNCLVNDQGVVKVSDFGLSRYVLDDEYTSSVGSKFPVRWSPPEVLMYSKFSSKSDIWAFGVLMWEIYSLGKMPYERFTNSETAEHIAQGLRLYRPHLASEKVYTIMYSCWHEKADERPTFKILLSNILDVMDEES
# Chain of Bruton's Tyrosine Kinase (Q06187 whole entry): as above
compound,measurement,setting,value
"CN1CCC(c2ccc(Nc3cc(-c4ccnc(-n5ncc6cc(C(C)(C)C)cc(F)c6c5=O)c4CO)nn(C)c3=O)nc2)CC1 [Compound 1, 6-tert-Butyl-8-fluoro-2-{3-hydroxymethyl-4-[1-methyl-5-(1′-methyl-1′,2′,3′,4′,5′,6′-hexahydro-[3,4′]bipyridinyl-6-ylamino)-6-oxo-1,6-dihydro-pyridazin-3-yl]-pyridin-2-yl}-2H-phthalazin-1-one]",Btk inhibitor potency (FRET),Bruton's Tyrosine Kinase,very potent
same,IC50,"Bruton's Tyrosine Kinase; inactivated state of BTK, 18-24 h at 14° C.",0.4 nM
same,IC50,[1]; read-out: IC50 1L-13 release,11.6 nM
same,IC50,[1]; read-out: IC50 GM-CSF release,3.77 nM
same,IC50,[1]; read-out: IC50 Histamine release,14.7 nM
same,IC50,[1]; read-out: IC50 IL-5 release,7.32 nM
same,IC50,[1]; read-out: IC50 LTC4 release,4.28 nM
same,IC50,[1]; read-out: IC50 PGD2 release,6.31 nM
same,IC50,"[2]; 240 h, 10 days culture, read-out: IC50 IgG production",4.15 nM
same,IC50,"[2]; 240 h, 10 days culture, read-out: IC50 IgM production",1.21 nM
same,IC50,"[2]; 336 h, 14 days culture, read-out: IC50 IgE production",1.47 nM
same,"reduction of levels of IgM, IgG, and IgE in the supernatant, efficacy",[2]; concentration dependent,up to 100%
same,CL,Pharmacokinetics in rat; 1.0 mg/kg (iv),high
same,Oral Bioavailability,"Pharmacokinetics in rat; 1.0 (iv), 2.0 (po) mg/kg",low
same,clearance,"Pharmacokinetics in rat; plasma, 1.0 mg/kg (iv)",75.8 mL/min/kg
same,bioavailability,"Pharmacokinetics in rat; plasma, 2 mg/kg, 1.0 (iv), 2.0 (po) mg/kg",2%
same,CL,[3]; 1.0 mg/kg (iv),moderate
same,Oral Bioavailability,"[3]; 1.0 (iv), 10 (po) mg/kg",low
same,clearance,"[3]; plasma, 1.0 mg/kg (iv)",26 mL/min/kg
same,bioavailability,"[3]; plasma, 10 mg/kg, 1.0 (iv), 10 (po) mg/kg",12%
same,Kd,Btk kinase,0.408 nM
same,off rate,Btk kinase; Biacore,very slow
same,kon,Btk kinase; read-out: Biacore Ka,886000 M⁻¹ s⁻¹
same,% reduction in airway resistance (R),"[4]; Inhaled, delivered dose 1.0 mg/kg, deposited dose 0.03 mg/kg, mOVA36",44%
same,% reduction in airway resistance (R),"[4]; Inhaled, delivered dose 2.7 mg/kg, deposited dose 0.1 mg/kg, mOVA36",59* %
same,% reduction in airway resistance (R),"[4]; Inhaled, delivered dose 8.6 mg/kg, deposited dose 0.3 mg/kg, mOVA36",86* %
same,% reduction in airway resistance (R),"[4]; Intranasal, delivered dose 0.3 mg/kg, deposited dose 0.3 mg/kg",85* %
same,OVA-induced increase in R,[4]; administered i.n. or delivered as a dry powder formulation by inhalation,effectively inhibited
